Data set [1] can be described thus: Cytotoxicity on KB3-1 (parent cell line). The note with it: human. It is filed as cell-based. As to the method:
(§1) The cytotoxicity was determined using the MTT-microtiter plate tetrazolinium cytotoxicity assay (MTA). The human lymphoblast RPMI 8402 and its camptothecin-resistant variant cell line, CPT-K5 was provided by Dr. Toshiwo Andoh (Aichi Cancer Center Research Institute, Nagoya, Japan). (36) The P388 mouse leukemia cell line and its CPT-resistant TOP1-deficient variant P388/CPT45 (37) were obtained from Michael R. Mattern and Randal K. Johnson (GlaxoSmithKline, King of Prussia, Pa.). The KB3-1 cell line and its multidrug-resistant variant KBV-1 (38) were obtained from K. V. Chin (The Cancer Institute of New Jersey, New Brunswick, N.J.). The KBH5.0 cell line as noted previously (21) was derived from KB3-1 by stepwise selection against Hoechst 33342. The cytotoxicity assay was performed using 96-well microtiter plates. Cells were grown in suspension at 37° C. in 5% CO2 and maintained by regular passage in RPMI medium supplemented with 10% heat inactivated fetal bovine serum, L-glutamine (2 mM), penicillin (100 U/mL), and Streptomycin (0.1 mg/mL). For determination of IC50, cells were exposed continuously for FOUR days to varying concentrations of drug, and MTT assays were performed at the end of the fourth day. […] All assays were performed at least twice in six replicate wells.
(§2) The cytotoxicity of the representative compounds of the invention were also tested on cell line KB3-1 (parent cell line), KBV-1 (a variant that overexpresses efflux transporter MDR1) and KBH5.0 (a variant that overexpresses BCRP). Differences in the relative cytotoxicity between the parent and variant cell lines may be indicative of a compound that is a substrate for an efflux transporter. […] Accordingly, compounds of the invention of formula I may be useful to treat tumors that are resistant to other anticancer agents, especially anticancer agents that are susceptible to efflux by BCRP (e.g. anthracyclines, mitoxantrone, topotecan, irinotecan, bisanthrone, doxorubicin, daunorubicin, and epirubin.

The subject of data set [2] is CPT-K5 (camptothecin-resistant variant of RPMI 8402). The experiment in a line: Test B. MTT cytotoxicity assay, CPT-K5. Type of data set: cell-based, human. As to conditions: Homo sapiens, read-out: Cytotoxicity IC50 CPT-K5. How it is done:
(§3) Test B. Cytotoxic Assays (Cancer Cell Lines and Efflux Transporter Cell Lines)
as §1
(Tetrazolium dyes change colour on reduction, which living cells bring about.)

Data set [3] concerns RPMI 8402 human lymphoblast cells. Description: Test B. MTT cytotoxicity assay, RPMI8402. It is filed as cell-based. As to conditions: Homo sapiens, RPMI 8402, 96 h, read-out: Cytotoxicity IC50 RPMI8402. How it is done:
as §3, §1

Data set [4] has as its system P388/CPT45 (CPT-resistant TOP1-deficient variant of P388). The experiment in a line: Test B. MTT cytotoxicity assay, P388/CPT45. It is filed as cell-based, mouse. As to conditions: Mus musculus, P388CPT45, 96 h, read-out: Cytotoxicity IC50 P388/CPT45. How it is done: as §3, §1
In data set [5] the test system is P388 mouse leukemia cell line. The experiment in a line: Test B. MTT cytotoxicity assay, P388. Type of data set: cell-based. The note with it: Mus musculus, read-out: Cytotoxicity IC50 P388. How it is done: as §3, §1
A further data set concerns MDR1. The experiment in a line: Cytotoxicity on KBV-1 (overexpresses MDR1). The note with it: human. Type of data set: cell-based. How it is done:
as §1, §2

The subject of a further data set is BCRP. Description: Cytotoxicity on KBH5.0 (overexpresses BCRP). As to conditions: human. It is filed as cell-based. How it is done: as §1, §2
Another data set addresses T1, human topoisomerase I (Homo sapiens, UniProt P11387).
T1 construct: unnamed fusion partner (recombinant fusion protein, T7 expression system); made in house; host or cells: Escherichia coli
T1 sequence (P11387 1-765): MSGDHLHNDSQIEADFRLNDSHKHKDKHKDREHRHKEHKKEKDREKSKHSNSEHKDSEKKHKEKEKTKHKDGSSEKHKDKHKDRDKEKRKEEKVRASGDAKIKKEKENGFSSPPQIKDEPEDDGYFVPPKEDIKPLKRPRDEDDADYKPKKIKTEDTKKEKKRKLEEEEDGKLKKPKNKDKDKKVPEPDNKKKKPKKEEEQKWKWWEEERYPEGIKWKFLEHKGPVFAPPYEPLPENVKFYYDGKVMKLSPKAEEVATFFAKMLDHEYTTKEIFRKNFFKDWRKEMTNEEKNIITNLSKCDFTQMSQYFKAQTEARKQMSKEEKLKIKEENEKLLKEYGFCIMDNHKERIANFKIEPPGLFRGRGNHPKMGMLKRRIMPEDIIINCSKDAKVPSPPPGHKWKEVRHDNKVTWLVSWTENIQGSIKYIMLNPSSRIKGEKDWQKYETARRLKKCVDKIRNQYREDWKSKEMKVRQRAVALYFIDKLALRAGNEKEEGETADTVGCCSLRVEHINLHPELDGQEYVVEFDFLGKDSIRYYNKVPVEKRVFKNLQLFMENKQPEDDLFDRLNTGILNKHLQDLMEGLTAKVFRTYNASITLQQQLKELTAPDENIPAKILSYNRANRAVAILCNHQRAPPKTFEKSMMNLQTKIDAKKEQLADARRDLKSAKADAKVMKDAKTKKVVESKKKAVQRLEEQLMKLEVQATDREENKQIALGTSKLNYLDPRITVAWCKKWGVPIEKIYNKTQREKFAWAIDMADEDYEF
The experiment in a line: Test A. Topoisomerase I-mediated DNA cleavage assay. Type of data set: biochemical. As to conditions: Relative Effective Concentration; relative to camptothecin arbitrarily assumed as 0.2; same 10% cleavage on plasmid DNA. From the text: Test A. Topoisomerase I—Mediated DNA Cleavage Assay Human topoisomerase I was expressed in Escherichia coli and isolated as a recombinant fusion protein using a T7 expression system as described previously (31). Plasmid YepG was also purified by the alkali lysis method followed by phenol deproteination and CsCl/ethidium isopycnic centrifugation method as described (32). The 3′ end labeling of the plasmid was accomplished by digestion with a restriction enzyme followed by end filling with Klenow polymerase as previously described (33). The cleavage assays were performed as previously reported (34,35). The drug and the DNA in presence of topoisomerase I was incubated for 30 min at room temperature. The reactions were terminated by the addition of 5 μL of 5% SDS and 1 mg/mL […] with an additional 1 h of incubation at 37° C. […] After development of the gels, typically 24-h exposure was used to obtain autoradiograms outlining the extent of DNA fragmentation. Topoisomerase I-mediated DNA cleavage values are reported as Relative Effective Concentration (REC). […] Results for the assay for representative compounds of the invention of formula I along with comparison compounds are shown in Table 1.

pIC50: −log10 of the molar value. Like-named read-outs stand apart in the source and are kept apart here.

Experimental findings from patent US10179789B2, “Methylenedioxybenzo [I] phenanthridine derivatives used to treat cancer” (Rutgers, The State University of New Jersey, priority 2009, dated 2019) are described below.

As for `CC[C@@]1(O)C(=O)OCc2c1cc1n(c2=O)Cc2cc3ccccc3nc2-1` [CPT, Camptothecin, reference compound], the IC50 at 4 days in [1] (KB3-1 cells (parent cell line), KB3-1 parent cell line, read-out: Cytotoxicity KB3-1) came out at 15 nM; in the data set with MDR1 (KBV-1, overexpresses MDR1, read-out: Cytotoxicity KBV-1) it was 25 nM; with BCRP (KBH5.0 cells (KB3-1 variant that overexpresses BCRP), KBH5.0, overexpresses BCRP, read-out: Cytotoxicity KBH5.0), 26 nM. The pIC50 is under 5.00 in [2] (96 h, CPT-K5, four days continuous exposure, MTT); 8.22 in [3] (RPMI8402, four days continuous exposure, MTT); under 5.00 in data set [4]; 7.85 in data set [5] (96 h, P388, four days continuous exposure, MTT). The “TOP1 Mediated DNA Cleavage (REC Value)” value on human topoisomerase I was 0.2.
Turning to `COc1cc2c(C(=O)NCC(C)(C)N)cc3c4cc5c(cc4ncc3c2cc1OC)OCO5` [Compound 33, N-(2-Amino-2-methylpropyl)-2,3-dimethoxy-8,9-methylenedioxybenzo[i]phenanthridine-12-carboxamide], the melting point (commonly the temperature of the solid-liquid transition) is 269 to 271 °C (dec.). Also, the IC50 at 4 days in data set [1] came to 4 nM. The pIC50 in [2] (CPT-K5, 96 h) was 5.66. The pIC50 in data set [3] was 8.00. For the same molecule, the pIC50 in [4] is 6.12. In addition, the pIC50 in data set [5] (P388, 96 h) is 7.70. The molecule further came in with an IC50 at 4 days with MDR1 of 480 nM. This molecule returned an IC50 at 4 days in the data set on BCRP of 190 nM. Besides, the “TOP1 Mediated DNA Cleavage (REC Value)” value on human topoisomerase I turned out to be 1.1.
Turning to `COc1cc2c(C(=O)NCCC(C)(C)N(C)C)cc3c4cc5c(cc4ncc3c2cc1OC)OCO5` [Compound 42, 2,3-Dimethoxy-N-(3-(dimethylamino)-3-methylbutyl)-8,9-methylenedioxybenzo[i]phenanthridine-12-carboxamide], the melting point was in the range of 228 to 230 °C. Also, the IC50 at 4 days in data set [1] came out at 50 nM. Also, the pIC50 in [2] (CPT-K5, 96 h) was 5.68. Also, the pIC50 in data set [3] was 7.60. Also, the pIC50 in data set [4] is 6.28. The pIC50 in data set [5] (P388, 96 h) is 7.05. The IC50 at 4 days in the data set on MDR1 was found to be 2500 nM. This molecule also returned an IC50 at 4 days in the data set with BCRP of 160 nM. Also, the “TOP1 Mediated DNA Cleavage (REC Value)” value on human topoisomerase I was 2.3.
The molecule `COc1cc2c(C(=O)NCCCC(C)(C)N(C)C)cc3c4cc5c(cc4ncc3c2cc1OC)OCO5` [Compound 43, 2,3-Dimethoxy-N-(4-(dimethylamino)-4-methylpentyl)-8,9-methylenedioxybenzo[i]phenanthridine-12-carboxamide] yielded a melting point of 235 to 237 °C. Also, the IC50 at 4 days in [1] was found to be 250 nM. In addition, the pIC50 in data set [2] (CPT-K5, 96 h) is 5.52. The pIC50 in data set [3] was 6.80. Further, in data set [4], the pIC50 is 6.40. Also, the pIC50 in data set [5] (P388, 96 h) was 6.74. Also, the IC50 at 4 days in the data set on MDR1 amounted to 2800 nM. The IC50 at 4 days in the data set with BCRP was 600 nM. Moreover, the “TOP1 Mediated DNA Cleavage (REC Value)” value at human topoisomerase I was determined as 3.4.
Take `COc1cc2c(C(=O)NCCN(C)C)cc3c4cc5c(cc4ncc3c2cc1OC)OCO5` [Compound 206, reference compound]: the results for the IC50 at 4 days (in [1]; in the data set with MDR1; in the data set with BCRP) were 5 nM, 220 nM and 60 nM, respectively. For the same molecule, the pIC50 is 6.00 in data set [2] (CPT-K5, 96 h); 8.52 in data set [3]; 6.49 in data set [4]; 8.52 in [5] (P388, 96 h). The “TOP1 Mediated DNA Cleavage (REC Value)” value on human topoisomerase I worked out at 0.1.
For `COc1cc2cc(C(=O)NCCN(C)C)c3c4cc5c(cc4ncc3c2cc1OC)OCO5` [Compound 216, reference compound], the IC50 at 4 days stood at 27 nM in data set [1], 1400 nM with MDR1 and 200 nM in the data set with BCRP. Also, the pIC50 was 6.20 in [2] (CPT-K5, 96 h); 7.46 in [3]; 6.59 in data set [4]; 7.82 in [5] (P388, 96 h). Moreover, the “TOP1 Mediated DNA Cleavage (REC Value)” value on human topoisomerase I came out at 0.2.
For `CC[C@@]1(O)C(=O)OCc2c1cc1n(c2=O)Cc2cc3c(CN(C)C)c(O)ccc3nc2-1` [Topotecan, topotecan, reference compound], the IC50 at 4 days in data set [1] is 40 nM; in the data set with MDR1, 440 nM; with BCRP it was 440 nM. In addition, the pIC50 is under 5.00 in data set [2] (CPT-K5, 96 h); 7.68 in data set [3]; under 5.00 in [4]; 7.35 in data set [5] (P388, 96 h). The “TOP1 Mediated DNA Cleavage (REC Value)” value on human topoisomerase I is reported as 1.0.
